Data on 34 compounds can be found in patent US9562053B2, “Benzo-fused heterocyclic derivatives useful as agonists of GPR120” (Janssen Pharmaceutica NV, priority 2013, dated 2017).

The assay addresses T1, long form of human GPR120 (Homo sapiens, UniProt Q5NUL3).
T1 construct: host or cells: PathHunter CHO-K1 GPR120 β-Arrestin Cell Line
T1 sequence (Q5NUL3 1-377 isoform Q5NUL3-1): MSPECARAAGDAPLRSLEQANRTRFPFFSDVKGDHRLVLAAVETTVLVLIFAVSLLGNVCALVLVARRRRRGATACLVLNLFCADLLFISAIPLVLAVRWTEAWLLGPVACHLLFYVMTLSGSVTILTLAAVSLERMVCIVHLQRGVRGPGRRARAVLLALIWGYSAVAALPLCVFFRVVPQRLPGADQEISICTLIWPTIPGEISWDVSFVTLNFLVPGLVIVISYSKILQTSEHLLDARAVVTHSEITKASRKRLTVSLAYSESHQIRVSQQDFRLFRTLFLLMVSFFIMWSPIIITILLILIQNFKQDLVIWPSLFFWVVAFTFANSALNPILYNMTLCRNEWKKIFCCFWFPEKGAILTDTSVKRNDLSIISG
The assay is described as follows: Human GPR120 DiscoveRx PathHunter Beta-Arrestin Assay, Procedure β-arrestin A (3000 cells per well). The following applies: read-out: GPR120 B-arrestin A EC50. Format: cell-based. The essentials: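 PathHunter CHO-K1 cells with long-form receptor, 3000/well, seeded overnight at 37 °C; equilibrated 60 min at 37 °C in HBSS/20 mM HEPES/0.1% BSA, pH 7.4. Compound serial dilutions (25–0.012 μM) added for 90 min at 37 °C, detection 60 min at room temperature, luminescence read; EC50 from % of positive control, Hill slope fixed at 1.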

Regarding `Cc1cc2c(F)c(OC(F)(F)F)c(F)c(COc3ccc(CCC(=O)O)c(F)c3F)c2o1` [Compound 75, 3-(4-{[4,6-Difluoro-2-methyl-5-(trifluoromethoxy)-1-benzofuran-7-yl]methoxy}-2,3-difluorophenyl)propanoic acid], the EC50 came to 394 nM.
In the case of `Cc1c(CCC(=O)O)ccc(OCc2cc(Cl)cc3cn(C)nc23)c1C` [Compound 8, 3-{4-[(5-Chloro-2-methyl-2H-indazol-7-yl)methoxy]-2,3-dimethylphenyl}propanoic acid] it was 613 nM.
In the case of `Cc1cc2c(F)c(OC(F)(F)F)c(F)c(COc3ccc(CCC(=O)O)c(C)c3C)c2o1` [Compound 71, 3-(4-{[4,6-Difluoro-2-methyl-5-(trifluoromethoxy)-1-benzofuran-7-yl]methoxy}-2,3-dimethylphenyl)propanoic acid] it was 45 nM; in that of `Cc1nc2cc(Cl)cc(COc3ccc(CCC(=O)O)c(C)c3C)c2o1` [Compound 84, 3-{4-[(5-Chloro-2-methyl-1,3-benzoxazol-7-yl)methoxy]-2,3-dimethylphenyl}propanoic acid], 434 nM.
For `Cc1c(CCC(=O)O)ccc(OCc2cc(F)cc3cc(C(C)C)oc23)c1C` [Compound 22, 3-(4-{[5-Fluoro-2-(1-methylethyl)-1-benzofuran-7-yl]methoxy}-2,3-dimethylphenyl)propanoic acid], the EC50 was 797 nM.
Next, `CCc1cc2cc(Cl)c(OCCOC)c(COc3ccc(CCC(=O)O)c(C)c3C)c2o1` [Compound 63, 3-(4-{[5-Chloro-2-ethyl-6-(2-methoxyethoxy)-1-benzofuran-7-yl]methoxy}-2,3-dimethylphenyl)propanoic acid]: 231 nM.
In the case of `Cc1cc2cc3c(c(COc4ccc(CCC(=O)O)c(C)c4C)c2o1)OCCO3` [Compound 90, 3-{2,3-Dimethyl-4-[(7-methyl-2,3-dihydrofuro[2,3-g][1,4]benzodioxin-5-yl)methoxy]phenyl}propanoic acid] it was 532 nM; in that of `CC#Cc1cc(COc2ccc(CCC(=O)O)c(C)c2C)c2oc(C)cc2c1` [Compound 83, 3-{2,3-Dimethyl-4-[(2-methyl-5-prop-1-yn-1-yl-1-benzofuran-7-yl)methoxy]phenyl}propanoic acid], 440 nM; in that of `CCc1cc2cc(Cl)c(CC)c(COc3ccc(CCC(=O)O)c(C)c3C)c2o1` [Compound 61, 3-{4-[(5-Chloro-2,6-diethyl-1-benzofuran-7-yl)methoxy]-2,3-dimethylphenyl}propanoic acid], 190 nM.
Turning to `Cc1cc2cc(OC(F)F)cc(COc3ccc(CCC(=O)O)c(C)c3C)c2o1` [Compound 76, 3-(4-{[5-(Difluoromethoxy)-2-methyl-1-benzofuran-7-yl]methoxy}-2,3-dimethylphenyl)propanoic acid], the EC50 turned out to be 144 nM.
Next, `Cc1nc2c(COc3ccc(CCC(=O)O)c(C)c3C)cc(Cl)cc2s1` [Compound 98, 3-{4-[(6-Chloro-2-methyl-1,3-benzothiazol-4-yl)methoxy]-2,3-dimethylphenyl}propanoic acid]: 154 nM.
Next, `Cc1oc2c(COc3ccc(CCC(=O)O)c(C)c3C)cc(F)cc2c1F` [Compound 5, 3-{4-[(3,5-Difluoro-2-methyl-1-benzofuran-7-yl)methoxy]-2,3-dimethylphenyl}propanoic acid]: 949 nM; `CCOc1c(Cl)cc2cc(CC)oc2c1COc1ccc(CCC(=O)O)c(C)c1C` [Compound 62, 3-{4-[(5-Chloro-6-ethoxy-2-ethyl-1-benzofuran-7-yl)methoxy]-2,3-dimethylphenyl}propanoic acid]: 274 nM; `CCCc1cc2cc(Cl)cc(COc3ccc(CCC(=O)O)c(C)c3C)c2o1` [Compound 31, 3-{4-[(5-Chloro-2-propyl-1-benzofuran-7-yl)methoxy]-2,3-dimethylphenyl}propanoic acid]: 232 nM.
`Cc1c(CCC(=O)O)ccc(OCc2cc(F)cc3cc(C4CCCC4)oc23)c1C` [Compound 18, 3-{4-[(2-Cyclopentyl-5-fluoro-1-benzofuran-7-yl)methoxy]-2,3-dimethylphenyl}propanoic acid]: the EC50 was found to be 1670 nM.
In the case of `Cc1c(CCC(=O)O)ccc(OCc2cc(Cl)cc3cnn(C)c23)c1C` [Compound 7, 3-{4-[(5-Chloro-1-methyl-1H-indazol-7-yl)methoxy]-2,3-dimethylphenyl}propanoic acid], the half-maximal effective concentration (EC50) amounted to 108 nM.
On to `Cc1cc2c(COc3ccc(CCC(=O)O)c(C)c3C)cc(Cl)cc2o1` [Compound 81, 3-{4-[(6-Chloro-2-methyl-1-benzofuran-4-yl)methoxy]-2,3-dimethylphenyl}propanoic acid], for which the concentration giving a half-maximal response (EC50) is 817 nM.
Next, `CCCc1cc2cc(I)cc(COc3ccc(CCC(=O)O)c(C)c3C)c2o1` [Compound 47, 3-{4-[(5-Iodo-2-propyl-1-benzofuran-7-yl)methoxy]-2,3-dimethylphenyl}propanoic acid]: 197 nM.
On to `Cc1c(CCC(=O)O)ccc(OCc2cc(Cl)cc3cc(C=CF)oc23)c1C` (mixture of isomers) [Compound 88, 3-(4-((5-Chloro-2-(2-fluorovinyl)benzofuran-7-yl)methoxy)-2,3-dimethylphenyl)propanoic acid], for which the EC50 stood at 594 nM.
Next, `CCCc1cc2cc(OC(F)(F)F)cc(COc3ccc(CCC(=O)O)c(C)c3C)c2o1` [Compound 35, 3-(2,3-Dimethyl-4-{[2-propyl-5-(trifluoromethoxy)-1-benzofuran-7-yl]methoxy}phenyl)propanoic acid]: 190 nM.
For the compound `CCc1cc2cc(Cl)c(OC)c(COc3ccc(CCC(=O)O)c(C)c3C)c2o1` [Compound 44, 3-{4-[(5-Chloro-2-ethyl-6-methoxy-1-benzofuran-7-yl)methoxy]-2,3-dimethylphenyl}propanoic acid], the EC50 worked out at 230 nM.
Take `Cc1c(CCC(=O)O)ccc(OCc2cc(OC(F)(F)F)cc3cc(C=CF)oc23)c1C` (mixture of isomers) [Compound 97, 3-(4-{[2-(2-Fluoroethenyl)-5-(trifluoromethoxy)-1-benzofuran-7-yl]methoxy}-2,3-dimethylphenyl)propanoic acid]: the EC50 is 169 nM.
In the case of `CCCc1cc2cc(Cl)cc(COc3ccc(CCC(=O)O)c(F)c3F)c2o1` [Compound 59, 3-{4-[(5-Chloro-2-propyl-1-benzofuran-7-yl)methoxy]-2,3-difluorophenyl}propanoic acid] it was 146 nM; in that of `Cc1cc2cc3c(c(COc4ccc(CCC(=O)O)c(C)c4C)c2o1)OCO3` [Compound 82, 3-{2,3-Dimethyl-4-[(6-methylfuro[2,3-f][1,3]benzodioxol-4-yl)methoxy]phenyl}propanoic acid], 851 nM; in that of `CCOc1cc(COc2ccc(CCC(=O)O)c(C)c2C)c2oc(CC)cc2c1` [Compound 29, 3-{4-[(5-Ethoxy-2-ethyl-1-benzofuran-7-yl)methoxy]-2,3-dimethylphenyl}propanoic acid], 616 nM.
Next, `CC#Cc1cc(COc2ccc(CCC(=O)O)c(C)c2C)c2oc(CCC)cc2c1` [Compound 58, 3-{2,3-Dimethyl-4-[(2-propyl-5-prop-1-yn-1-yl-1-benzofuran-7-yl)methoxy]phenyl}propanoic acid]: 410 nM.
With `CCc1cc2cc(Cl)c(OCC(C)C)c(COc3ccc(CCC(=O)O)c(C)c3C)c2o1` [Compound 67, 3-(4-{[5-Chloro-2-ethyl-6-(2-methylpropoxy)-1-benzofuran-7-yl]methoxy}-2,3-dimethylphenyl)propanoic acid], the EC50 was found to be 221 nM.
Next, `CCCc1cc2cc(Cl)cc(COc3ccc(CCC(=O)O)c(C)c3C#N)c2o1` [Compound 41, 3-{4-[(5-Chloro-2-propyl-1-benzofuran-7-yl)methoxy]-3-cyano-2-methylphenyl}propanoic acid]: 626 nM; `CCc1cc2cc(Cl)c(C)c(COc3ccc(CCC(=O)O)c(C)c3C)c2o1` [Compound 40, 3-{4-[(5-Chloro-2-ethyl-6-methyl-1-benzofuran-7-yl)methoxy]-2,3-dimethylphenyl}propanoic acid]: 107 nM; `Cc1c(CCC(=O)O)ccc(OCc2cc(Cl)cc3cc(CC(F)F)oc23)c1C` [Compound 87, 3-(4-{[5-Chloro-2-(2,2-difluoroethyl)-1-benzofuran-7-yl]methoxy}-2,3-dimethylphenyl)propanoic acid]: 409 nM.
In the case of `CCc1cc2cc(Br)cc(COc3ccc(CCC(=O)O)c(C)c3C)c2o1` [Compound 45, 3-{4-[(5-Bromo-2-ethyl-1-benzofuran-7-yl)methoxy]-2,3-dimethylphenyl}propanoic acid] it was 95 nM.
Next, `Cc1c(CCC(=O)O)ccc(OCc2cc(F)cc3cc(C#N)oc23)c1C` [Compound 49, 3-{4-[(2-Cyano-5-fluoro-1-benzofuran-7-yl)methoxy]-2,3-dimethylphenyl}propanoic acid]: 507 nM.
For `CCOc1ccc2cc(CC)oc2c1COc1ccc(CCC(=O)O)c(C)c1C` [Compound 66, 3-{4-[(6-Ethoxy-2-ethyl-1-benzofuran-7-yl)methoxy]-2,3-dimethylphenyl}propanoic acid], the EC50 was 1410 nM.
In the case of `Cc1cc2cc3c(c(COc4ccc(CCC(=O)O)c(C)c4C)c2o1)OC(F)(F)O3` [Compound 89, 3-{4-[(2,2-Difluoro-6-methylfuro[2,3-f][1,3]benzodioxol-4-yl)methoxy]-2,3-dimethylphenyl}propanoic acid] it was 119 nM.

As usually defined, the EC50 is the concentration needed to bring the measured effect to its halfway point.
